From paper PMC9103758 (International Journal of Molecular Sciences, 2022) come the findings set out here.

Values joined by “and” are separate entries in the source; they are usually repeats but may differ in a detail not shown here. Equal values may be shown once.

What is called IC50 is the point on the concentration scale where inhibition reaches its midpoint.

The target of assay [1] is T1, VRAC-mediated chloride current (ICl, swell) in LN215 cells (Homo sapiens, UniProt Q8IWT6).
T1 construct: endogenous in cells; host or cells: LN215 human glioma cells stably expressing the halide sensor YFP-F46L/H148Q/I152L
T1 sequence (Q8IWT6 1-810): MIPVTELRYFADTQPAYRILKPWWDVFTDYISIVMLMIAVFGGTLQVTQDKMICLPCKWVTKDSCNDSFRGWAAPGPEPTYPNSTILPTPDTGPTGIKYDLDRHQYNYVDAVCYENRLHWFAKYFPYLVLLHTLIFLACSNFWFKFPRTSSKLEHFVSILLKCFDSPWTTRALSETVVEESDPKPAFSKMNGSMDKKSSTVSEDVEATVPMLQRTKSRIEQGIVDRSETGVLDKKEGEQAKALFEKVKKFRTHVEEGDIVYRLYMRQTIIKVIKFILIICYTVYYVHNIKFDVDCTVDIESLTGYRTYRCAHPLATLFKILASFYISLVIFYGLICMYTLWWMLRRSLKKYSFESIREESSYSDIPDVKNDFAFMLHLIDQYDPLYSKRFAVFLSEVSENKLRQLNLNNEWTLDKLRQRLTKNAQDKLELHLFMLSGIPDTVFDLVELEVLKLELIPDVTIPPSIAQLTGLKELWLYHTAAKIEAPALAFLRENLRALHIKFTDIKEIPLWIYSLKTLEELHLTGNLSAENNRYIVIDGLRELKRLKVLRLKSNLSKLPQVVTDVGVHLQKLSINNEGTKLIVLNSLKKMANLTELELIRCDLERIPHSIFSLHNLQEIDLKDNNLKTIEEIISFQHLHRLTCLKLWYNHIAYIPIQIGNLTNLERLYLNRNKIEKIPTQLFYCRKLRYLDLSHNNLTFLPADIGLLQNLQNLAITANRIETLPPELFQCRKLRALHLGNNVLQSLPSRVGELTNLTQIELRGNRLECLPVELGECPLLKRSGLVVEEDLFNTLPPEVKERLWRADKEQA
Kind of assay: Whole-cell voltage-clamp of ICl,swell in LN215 cells. The assay is classed as cell-based. Conditions: dose-dependent.
Experimental: (A) Whole-cell membrane currents were recorded at a holding potential of −50 mV by voltage steps ranging from −120 to 120 mV (in steps of 20 mV) in HEK293T cells. […] (C) Whole-cell VRAC currents were recorded at a holding potential of −50 mV by voltage steps ranging from −100 to 100 mV (in steps of 20 mV) in LN215 cells.
For volume-regulated anion channel (VRAC) currents measurement, the isotonic bath solution contained (in mM): 150 NaCl, 6 KCL, 1.5 CaCl2, 1 MgCl2, 10 glucose, 1 HEPES, and pH 7.4 with NaOH (320 mOsm). […] The pipette solution contained (in mM): 40 CsCl, 100 Cs-methanesulfonate, 0.5 EGTA, 1 MgCl2, 1.9 CaCl2, 5 EGTA, 4 Tris−ATP, 10 HEPES, and pH 7.2 with CsOH (290 mOsm). Pipettes were pulled from borosilicate glass and had resistances of 3–5 MΩ after fire polishing. Seal resistances were between 3 and 10 GΩ. The liquid junction potential (~2.4 mV) was not corrected. After establishing the whole-cell configuration, whole-cell capacitance and series resistance were compensated with the amplifier circuitry. VRAC was activated by exposing LN215 cells to a 25% hypotonic bath solution. Whole-cell currents were elicited by applying hyperpolarizing and depolarizing voltage pulses from a holding potential of 0 mV to potentials between −100 mV and +100 mV or −120 mV and +120 mV in steps of 20 mV. Recordings were made at room temperature. […]

Assay [2] deals with T2, human ANO2 (Homo sapiens, UniProt Q9NQ90).
T2 construct: expressed in transfected cells; host or cells: Fisher rat thyroid (FRT) cells
T2 sequence (Q9NQ90 1-998): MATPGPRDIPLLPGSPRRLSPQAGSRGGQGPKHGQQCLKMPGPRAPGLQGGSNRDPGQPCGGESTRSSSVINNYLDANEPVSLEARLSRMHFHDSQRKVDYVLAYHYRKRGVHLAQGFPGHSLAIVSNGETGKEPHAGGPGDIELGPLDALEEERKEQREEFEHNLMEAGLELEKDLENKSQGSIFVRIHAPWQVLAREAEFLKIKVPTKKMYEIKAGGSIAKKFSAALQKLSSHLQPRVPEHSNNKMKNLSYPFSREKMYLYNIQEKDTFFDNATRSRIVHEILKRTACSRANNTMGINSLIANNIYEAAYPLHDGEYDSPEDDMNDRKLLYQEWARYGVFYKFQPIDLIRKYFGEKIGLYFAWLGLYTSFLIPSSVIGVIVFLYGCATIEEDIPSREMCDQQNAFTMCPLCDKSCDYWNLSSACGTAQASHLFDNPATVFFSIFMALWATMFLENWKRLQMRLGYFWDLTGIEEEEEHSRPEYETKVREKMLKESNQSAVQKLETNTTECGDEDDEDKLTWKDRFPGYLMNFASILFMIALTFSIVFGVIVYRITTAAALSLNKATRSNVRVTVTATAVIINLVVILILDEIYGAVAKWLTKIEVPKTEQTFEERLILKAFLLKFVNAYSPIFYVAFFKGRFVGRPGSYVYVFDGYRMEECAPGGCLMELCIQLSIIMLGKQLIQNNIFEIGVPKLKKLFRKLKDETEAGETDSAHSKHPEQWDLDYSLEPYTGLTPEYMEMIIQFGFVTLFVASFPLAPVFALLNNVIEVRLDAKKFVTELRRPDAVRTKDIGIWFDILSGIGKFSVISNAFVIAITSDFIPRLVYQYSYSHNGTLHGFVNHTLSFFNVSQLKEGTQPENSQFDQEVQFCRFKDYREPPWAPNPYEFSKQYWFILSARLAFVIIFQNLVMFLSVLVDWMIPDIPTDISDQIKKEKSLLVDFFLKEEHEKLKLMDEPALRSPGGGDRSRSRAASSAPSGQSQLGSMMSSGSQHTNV
Put plainly: YFP fluorescence quenching assay in FRT cells expressing human ANO2. The assay is classed as cell-based. Conditions: FRT cells expressing human ANO2, up to 10 μM.
Experimental: ANO2 activity was measured using YFP fluorescence quenching assay in FRT cells expressing human ANO2.
(D) Representative YFP fluorescence traces in FRT cells expressing human ANO2.

Assay [3] has as its target T3, human CFTR (Homo sapiens, UniProt P13569).
T3 construct: expressed in transfected cells; host or cells: Fisher rat thyroid (FRT) cells
Kind of assay: Apical membrane current of CFTR in FRT cells expressing human CFTR. The assay is classed as cell-based. Particulars: apical membrane current, FRT cells expressing human CFTR, 20 μM forskolin, n = 5; read-out: CFTR chloride channel IC50. The text has this:
[…]. (C) Summary of dose-response (mean ± S.E., n = 5). […]. (F) Summary of dose−response (mean ± S.E., n = 6).
Snapwell inserts containing ANO1(abc) or CFTR-expressing FRT cells were mounted in Ussing chambers (Physiological Instruments, San Diego, CA). The basolateral hemichamber was filled with buffer solution (in mM): 120 NaCl, 5 KCl, 1 MgCl2, 1 CaCl2, 10 D-glucose, 2.5 HEPES, and 25 NaHCO3 (pH 7.4). The apical hemichamber was filled with buffer solution (in mM): 60 NaCl, 60 Na-gluconate, 5 KCl, 1 MgCl2, 1 CaCl2, 10 D-glucose, 2.5 HEPES, and 25 NaHCO3 (pH 7.4). FRT cells were bathed for a 10 min stabilization period and gassed with 5% CO2 and 95% O2 at 37 °C. The apical membrane current was recorded with an EVC4000 Multi-Channel V/I Clamp (World Precision Instruments, Sarasota, FL, USA) and a PowerLab 4/35 (AD Instruments, Castle Hill, Australia).

The target of assay [4] is T4, VRAC (Homo sapiens, UniProt Q8IWT6).
T4 sequence (Q8IWT6 1-810): T1 sequence (Q8IWT6 1-810)
Put plainly: cell-based. Particulars: LN215 cells.

T3 sequence (P13569 whole entry): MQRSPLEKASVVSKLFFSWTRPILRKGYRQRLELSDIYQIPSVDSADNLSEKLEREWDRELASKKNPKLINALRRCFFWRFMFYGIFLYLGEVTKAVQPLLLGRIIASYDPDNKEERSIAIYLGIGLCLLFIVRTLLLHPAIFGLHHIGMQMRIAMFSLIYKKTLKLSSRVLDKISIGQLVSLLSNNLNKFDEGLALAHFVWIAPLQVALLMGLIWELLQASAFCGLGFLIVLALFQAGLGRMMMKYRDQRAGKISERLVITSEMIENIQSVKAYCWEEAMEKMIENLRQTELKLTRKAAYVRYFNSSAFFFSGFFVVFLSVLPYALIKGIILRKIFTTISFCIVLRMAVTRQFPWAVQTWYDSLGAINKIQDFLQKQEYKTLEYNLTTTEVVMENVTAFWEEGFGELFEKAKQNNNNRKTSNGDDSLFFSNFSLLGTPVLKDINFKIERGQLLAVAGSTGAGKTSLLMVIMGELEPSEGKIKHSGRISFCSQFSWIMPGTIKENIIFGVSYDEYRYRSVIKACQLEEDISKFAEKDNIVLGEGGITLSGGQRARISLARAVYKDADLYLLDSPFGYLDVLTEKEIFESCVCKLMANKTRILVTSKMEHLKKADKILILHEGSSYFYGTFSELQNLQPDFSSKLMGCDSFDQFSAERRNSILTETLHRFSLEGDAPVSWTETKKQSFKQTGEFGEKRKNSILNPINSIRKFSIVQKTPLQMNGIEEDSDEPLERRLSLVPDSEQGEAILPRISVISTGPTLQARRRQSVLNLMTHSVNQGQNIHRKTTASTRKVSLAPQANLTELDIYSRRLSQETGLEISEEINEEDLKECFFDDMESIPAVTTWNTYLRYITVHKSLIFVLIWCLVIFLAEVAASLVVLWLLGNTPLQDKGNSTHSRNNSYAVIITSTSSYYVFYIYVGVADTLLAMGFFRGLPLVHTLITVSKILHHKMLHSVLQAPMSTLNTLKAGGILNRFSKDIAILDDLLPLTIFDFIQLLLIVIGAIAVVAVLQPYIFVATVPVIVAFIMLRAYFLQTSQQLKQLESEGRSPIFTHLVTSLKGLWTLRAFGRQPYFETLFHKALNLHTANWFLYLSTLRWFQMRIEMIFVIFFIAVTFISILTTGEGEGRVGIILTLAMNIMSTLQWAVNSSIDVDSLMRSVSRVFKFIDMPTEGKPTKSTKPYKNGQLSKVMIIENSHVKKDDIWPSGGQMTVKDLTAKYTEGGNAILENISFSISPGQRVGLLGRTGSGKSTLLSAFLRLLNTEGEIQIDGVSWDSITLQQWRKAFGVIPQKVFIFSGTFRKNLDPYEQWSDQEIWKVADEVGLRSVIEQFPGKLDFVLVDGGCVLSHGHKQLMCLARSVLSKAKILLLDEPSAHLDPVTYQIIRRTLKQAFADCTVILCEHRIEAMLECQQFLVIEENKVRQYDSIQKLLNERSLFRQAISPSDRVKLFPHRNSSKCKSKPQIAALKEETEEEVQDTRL

Turning to `COc1cccc(C(c2c(O)c3ccccc3oc2=O)c2c(O)c3ccccc3oc2=O)c1O` [VI-116, 3,3′-((2-hydroxy-3-methoxyphenyl)methylene)bis(4-hydroxy-2H-chromen-2-one)], the “effect on hypotonic perfusion activated ICl, swell” value in assay [1] was “completely blocked”. For the same compound, the “effect on ANO2 activity” value in assay [2] is “minimal effect”. The IC50 in assay [3] is 12400 nM; in assay [4] (VRAC IC50, YFP fluorescence quenching, hypotonic solution 5 min, n = 4) it was 1280 nM and 1270 nM and 1300 nM; in assay [4] (VRAC IC50 in the presence of 10% FBS, medium containing 10% FBS, 5 min) it was 6890 nM.
